Data from patent US6355799B1, “Substituted benzene compounds, process for their preparation, and herbicidal and defoliant compositions containing them” (ISK Americas Incorporated, priority 1997, dated 2002).

Key:
Format in all cases: in vivo
[1] = test system: sicklepod (Cassia obtusifolia, CASOB); assay: Post-emerge test, greenhouse herbicide activity screening; conditions: post-emerge, phytotoxicity rating 0-100 at 14 days after application
How it was run: (§1)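 Sandy loam pots; pre-emerge: sown 1 d pre-spray, surface-watered after, then bottom-watered. Post-emerge: sown 8–21 d before, 2–3 leaf stage, + 0.25% v/v NIS, bottom-watered. Acetone, 187 l/ha track spray, 15–1000 g ai/ha. 0–100 injury score, day 14.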

[2] = test system: lambsquarters (Chenopodium album, CHEAL); assay: as above; conditions: post-emerge, phytotoxicity rating 0-100 at 14 days after application
How it was run: as §1

[3] = test system: velvetleaf (Abutilon theophrasti, ABUTH); assay: as above; conditions: post-emerge, phytotoxicity rating 0-100 at 14 days after application
How it was run: as §1

[4] = test system: barnyardgrass (Echinochloa crus-galli, ECHCG); assay: as above; conditions: post-emerge, phytotoxicity rating 0-100 at 14 days after application
How it was run: as §1

[5] = test system: johnsongrass (Sorghum halepense, SORHA); assay: as above; conditions: post-emerge, phytotoxicity rating 0-100 at 14 days after application
How it was run: as §1

[6] = test system: large crabgrass (Digitaria sanguinalis, DIGSA); assay: as above; conditions: post-emerge, phytotoxicity rating 0-100 at 14 days after application
How it was run: as §1

[7] = test system: green foxtail (Setaria viridis, SETVI); assay: as above; conditions: post-emerge, phytotoxicity rating 0-100 at 14 days after application
How it was run: as §1

[8] = test system: redroot pigweed (Amaranthus retroflexus, AMARE); assay: as above; conditions: post-emerge, phytotoxicity rating 0-100 at 14 days after application
How it was run: as §1

[9] = test system: ivyleaf morningglory (Ipomoea hederacea, IPOHE); assay: as above; conditions: post-emerge, phytotoxicity rating 0-100 at 14 days after application
How it was run: as §1

[10] = test system: field corn (Zea mays L., var. Dekalb 535, CORN); assay: Post-emerge test, crop safety; conditions: post-emerge, crop damage rating 0-100 at 14 days after application
How it was run: (§2)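 Compounds in acetone were track-sprayed at 15-1000 g ai/ha (187 l/ha) on sandy loam pots: pre-emerge one day after seeding, post-emerge at 2-3 leaf stage with 0.25% v/v non-ionic surfactant. Phytotoxicity was rated 14 days later on a 0 (no damage) to 100 (complete death) scale.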

[11] = test system: upland rice (Oryza sp., var. Tebonnet, RICE); assay: Post-emerge test, crop safety; conditions: post-emerge, crop damage rating 0-100 at 14 days after application
How it was run: as §2

[12] = test system: redroot pigweed (Amaranthus retroflexus, AMARE); assay: Pre-emerge test, greenhouse herbicide activity screening; conditions: pre-emerge, phytotoxicity rating 0-100 at 14 days after application
How it was run: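 Compounds in acetone were track-sprayed at 187 l/ha, 15–1000 g ai/ha, onto sandy loam pots. Pre-emerge seeds were sown one day before spraying, with surface watering afterwards. Post-emerge plants were at the 2–3 leaf stage and sprayed with 0.25% v/v non-ionic surfactant. Injury was rated 0–100 at 14 days.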

[13] = test system: sicklepod (Cassia obtusifolia, CASOB); assay: as above; conditions: pre-emerge, phytotoxicity rating 0-100 at 14 days after application
How it was run: as §2

[14] = test system: lambsquarters (Chenopodium album, CHEAL); assay: as above; conditions: pre-emerge, phytotoxicity rating 0-100 at 14 days after application
How it was run: as §2

[15] = test system: velvetleaf (Abutilon theophrasti, ABUTH); assay: as above; conditions: pre-emerge, phytotoxicity rating 0-100 at 14 days after application
How it was run: as §2

[16] = test system: barnyardgrass (Echinochloa crus-galli, ECHCG); assay: as above; conditions: pre-emerge, phytotoxicity rating 0-100 at 14 days after application
How it was run: as §2

[17] = test system: johnsongrass (Sorghum halepense, SORHA); assay: as above; conditions: pre-emerge, phytotoxicity rating 0-100 at 14 days after application
How it was run: as §2

[18] = test system: large crabgrass (Digitaria sanguinalis, DIGSA); assay: as above; conditions: pre-emerge, phytotoxicity rating 0-100 at 14 days after application
How it was run: as §2

[19] = test system: green foxtail (Setaria viridis, SETVI); assay: as above; conditions: pre-emerge, phytotoxicity rating 0-100 at 14 days after application
How it was run: as §2

[20] = test system: ivyleaf morningglory (Ipomoea hederacea, IPOHE); assay: as above; conditions: pre-emerge, phytotoxicity rating 0-100 at 14 days after application
How it was run: as §2

[21] = test system: field corn (Zea mays L., var. Dekalb 535, CORN); assay: Pre-emerge test, crop safety; conditions: crop damage, pre-emerge, phytotoxicity rating 0-100 at 14 days after application
How it was run: (§3)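 Rating: 0–100 visual injury, 14 DAA. Application: acetone, 187 l/ha, 15–1000 g ai/ha, flat-fan track sprayer with nozzle 40–45 cm above soil or canopy. Post-emerge runs used 0.25% v/v surfactant on 2–3 leaf plants.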

[22] = test system: upland rice (Oryza sp., var. Tebonnet, RICE); assay: Pre-emerge test, crop safety; conditions: crop damage, pre-emerge, phytotoxicity rating 0-100 at 14 days after application
How it was run: as §3

C=Cc1ccc(C(=O)Nc2c(OC)c(Cl)cc(F)c2N2C(=O)C3=C(CCCC3)C2=O)cc1 [8-30]
Post-emerge Herbicidal Activity CASOB ([1]; 63 g ai/ha): 80 | Post-emerge Herbicidal Activity CASOB ([1]; 250 g ai/ha): 100 | Post-emerge Herbicidal Activity CHEAL ([2]; 63 g ai/ha): 100 | Post-emerge Herbicidal Activity CHEAL ([2]; 250 g ai/ha): 100 | Post-emerge Herbicidal Activity ABUTH ([3]; 63 g ai/ha): 100 | Post-emerge Herbicidal Activity ABUTH ([3]; 250 g ai/ha): 100 | Post-emerge Herbicidal Activity ECHCG ([4]; 63 g ai/ha): 30 | Post-emerge Herbicidal Activity ECHCG ([4]; 250 g ai/ha): 70 | Post-emerge Herbicidal Activity SORHA ([5]; 63 g ai/ha): 30 | Post-emerge Herbicidal Activity SORHA ([5]; 250 g ai/ha): 50 | Post-emerge Herbicidal Activity DIGSA ([6]; 63 g ai/ha): 20 | Post-emerge Herbicidal Activity DIGSA ([6]; 250 g ai/ha): 40 | Post-emerge Herbicidal Activity SETVI ([7]; 63 g ai/ha): 40 | Post-emerge Herbicidal Activity SETVI ([7]; 250 g ai/ha): 70 | Post-emerge Herbicidal Activity AMARE ([8]; 63 g ai/ha): 100 | Post-emerge Herbicidal Activity AMARE ([8]; 250 g ai/ha): 100 | Post-emerge Herbicidal Activity IPOHE ([9]; 63 g ai/ha): 100 | Post-emerge Herbicidal Activity IPOHE ([9]; 250 g ai/ha): 100 | Post-emerge Herbicidal Activity CORN ([10]; 63 g ai/ha): 10 | Post-emerge Herbicidal Activity CORN ([10]; 250 g ai/ha): 15 | Post-emerge Herbicidal Activity RICE ([11]; 63 g ai/ha): 40 | Post-emerge Herbicidal Activity RICE ([11]; 250 g ai/ha): 35 | Pre-emerge Herbicidal Activity AMARE ([12]; rate 63 g ai/ha): 100 | Pre-emerge Herbicidal Activity AMARE ([12]; rate 250 g ai/ha): 100 | Pre-emerge Herbicidal Activity CASOB ([13]; rate 63 g ai/ha): 20 | Pre-emerge Herbicidal Activity CASOB ([13]; rate 250 g ai/ha): 20 | Pre-emerge Herbicidal Activity CHEAL ([14]; rate 63 g ai/ha): 100 | Pre-emerge Herbicidal Activity CHEAL ([14]; rate 250 g ai/ha): 100 | Pre-emerge Herbicidal Activity ABUTH ([15]; rate 63 g ai/ha): 70 | Pre-emerge Herbicidal Activity ABUTH ([15]; rate 250 g ai/ha): 90 | Pre-emerge Herbicidal Activity ECHCG ([16]; rate 63 g ai/ha): 0 | Pre-emerge Herbicidal Activity ECHCG ([16]; rate 250 g ai/ha): 20 | Pre-emerge Herbicidal Activity SORHA ([17]; rate 63 g ai/ha): 0 | Pre-emerge Herbicidal Activity SORHA ([17]; rate 250 g ai/ha): 30 | Pre-emerge Herbicidal Activity DIGSA ([18]; rate 63 g ai/ha): 30 | Pre-emerge Herbicidal Activity DIGSA ([18]; rate 250 g ai/ha): 50 | Pre-emerge Herbicidal Activity SETVI ([19]; rate 63 g ai/ha): 20 | Pre-emerge Herbicidal Activity SETVI ([19]; rate 250 g ai/ha): 70 | Pre-emerge Herbicidal Activity IPOHE ([20]; rate 63 g ai/ha): 20 | Pre-emerge Herbicidal Activity IPOHE ([20]; rate 250 g ai/ha): 10 | Pre-emerge Herbicidal Activity CORN ([21]; rate 63 g ai/ha): 0 | Pre-emerge Herbicidal Activity CORN ([21]; rate 250 g ai/ha): 5 | Pre-emerge Herbicidal Activity RICE ([22]; rate 63 g ai/ha): 5 | Pre-emerge Herbicidal Activity RICE ([22]; rate 250 g ai/ha): 10

O=C(Nc1cc(Cl)ccc1N1C(=O)C2=C(CCCC2)C1=O)c1ccc2ccccc2c1 [8-36]
Post-emerge Herbicidal Activity CASOB ([1]; 63 g ai/ha): 70 | Post-emerge Herbicidal Activity CASOB ([1]; 250 g ai/ha): 95 | Post-emerge Herbicidal Activity CHEAL ([2]; 63 g ai/ha): 95 | Post-emerge Herbicidal Activity CHEAL ([2]; 250 g ai/ha): 100 | Post-emerge Herbicidal Activity ABUTH ([3]; 63 g ai/ha): 100 | Post-emerge Herbicidal Activity ABUTH ([3]; 250 g ai/ha): 100 | Post-emerge Herbicidal Activity ECHCG ([4]; 63 g ai/ha): 0 | Post-emerge Herbicidal Activity ECHCG ([4]; 250 g ai/ha): 20 | Post-emerge Herbicidal Activity SORHA ([5]; 63 g ai/ha): 0 | Post-emerge Herbicidal Activity SORHA ([5]; 250 g ai/ha): 10 | Post-emerge Herbicidal Activity DIGSA ([6]; 63 g ai/ha): 10 | Post-emerge Herbicidal Activity DIGSA ([6]; 250 g ai/ha): 5 | Post-emerge Herbicidal Activity SETVI ([7]; 63 g ai/ha): 10 | Post-emerge Herbicidal Activity SETVI ([7]; 250 g ai/ha): 10 | Post-emerge Herbicidal Activity AMARE ([8]; 63 g ai/ha): 95 | Post-emerge Herbicidal Activity AMARE ([8]; 250 g ai/ha): 90 | Post-emerge Herbicidal Activity IPOHE ([9]; 63 g ai/ha): 100 | Post-emerge Herbicidal Activity IPOHE ([9]; 250 g ai/ha): 85 | Post-emerge Herbicidal Activity CORN ([10]; 63 g ai/ha): 10 | Post-emerge Herbicidal Activity CORN ([10]; 250 g ai/ha): 15 | Post-emerge Herbicidal Activity RICE ([11]; 63 g ai/ha): 10 | Post-emerge Herbicidal Activity RICE ([11]; 250 g ai/ha): 20 | Pre-emerge Herbicidal Activity AMARE ([12]; rate 63 g ai/ha): 100 | Pre-emerge Herbicidal Activity AMARE ([12]; rate 250 g ai/ha): 100 | Pre-emerge Herbicidal Activity CASOB ([13]; rate 63 g ai/ha): 10 | Pre-emerge Herbicidal Activity CASOB ([13]; rate 250 g ai/ha): 30 | Pre-emerge Herbicidal Activity CHEAL ([14]; rate 63 g ai/ha): 100 | Pre-emerge Herbicidal Activity CHEAL ([14]; rate 250 g ai/ha): 100 | Pre-emerge Herbicidal Activity ABUTH ([15]; rate 63 g ai/ha): 80 | Pre-emerge Herbicidal Activity ABUTH ([15]; rate 250 g ai/ha): 30 | Pre-emerge Herbicidal Activity ECHCG ([16]; rate 63 g ai/ha): 0 | Pre-emerge Herbicidal Activity ECHCG ([16]; rate 250 g ai/ha): 0 | Pre-emerge Herbicidal Activity SORHA ([17]; rate 63 g ai/ha): 0 | Pre-emerge Herbicidal Activity SORHA ([17]; rate 250 g ai/ha): 0 | Pre-emerge Herbicidal Activity DIGSA ([18]; rate 63 g ai/ha): 0 | Pre-emerge Herbicidal Activity DIGSA ([18]; rate 250 g ai/ha): 40 | Pre-emerge Herbicidal Activity SETVI ([19]; rate 63 g ai/ha): 0 | Pre-emerge Herbicidal Activity SETVI ([19]; rate 250 g ai/ha): 30 | Pre-emerge Herbicidal Activity IPOHE ([20]; rate 63 g ai/ha): 10 | Pre-emerge Herbicidal Activity IPOHE ([20]; rate 250 g ai/ha): 20 | Pre-emerge Herbicidal Activity CORN ([21]; rate 63 g ai/ha): 0 | Pre-emerge Herbicidal Activity CORN ([21]; rate 250 g ai/ha): 0 | Pre-emerge Herbicidal Activity RICE ([22]; rate 63 g ai/ha): 20 | Pre-emerge Herbicidal Activity RICE ([22]; rate 250 g ai/ha): 40
